Experimental data from patent US20150368248A1, “2-SUBSTITUTED-6-BIARYLMETHYLAMINO-9-CYCLOPENTYL-9H-PURINE DERIVATIVES, USE THEREOF AS MEDICAMENTS, AND PHARMACEUTICAL COMPOSITIONS” (UNIVERZITA PALACKEHO V OLOMOUCI, priority 2013, published 2015).
pIC50: −log10 of the molar value.

Tests used:
[1] = tested on: caspases-3/7 in Hep3B carcinoma cells; experiment: Caspase-3/7 activity in lysates of treated cells (Example 33); type: cell-based, human; conditions: 24 h treatment, concentration of 3xIC50
Procedure: Measurements of proapoptotic properties of BP14 were based on quantification of enzymatic activities of caspases-3/7. For caspase assays, treated cells were harvested by centrifugations and homogenized in an extraction buffer (10 mM KCl, 5 mM Hepes, 1 mM EDTA, 1 mM EGTA, 0.2% CHAPS, inhibitors of proteases, pH 7.4) on ice for 20 min. The homogenates were clarified by centrifugation at 10,000 g for 20 min at 4° C., then proteins were quantified by the Bradford method and diluted to the same concentration. Lysates were then incubated for 5 h with 100 μM Ac-DEVD-AMC as substrate (Sigma-Aldrich) in an assay buffer (25 mM PIPES, 2 mM EGTA, 2 mM MgCl2, 5 mM DTT, pH 7.3). The fluorescence of the product was measured using a Fluoroskan Ascent microplate reader (Labsystems, Helsinki, Finland) at 346 nm/442 nm (ex/em).

DEN-induced hepatoma = experiment: Diethylnitrosamine-induced liver cancer and drug intervention; type: in vivo, C57BL/6J mice; conditions: 3 cycles of 10 days, i.p., breaks of 7 days
Procedure: To initiate tumor development in the liver, 14-day-old C57BL/6J mice were intraperitoneally injected with a single dose of diethylnitrosamine (DEN, 25 mg/kg). After 8 month, pharmacological intervention was administrated in DEN-induced mice by 3 cycles of treatment with compounds for 10 days and a release from compounds for 7 days between the cycles. Either 5 mg/kg BA-12 or 1 mg/kg BP-14 was intraperitoneally injected in 100 μl of 0.01% DMSO. Control mice obtained 100 μl solvent only. Thereafter, mice were sacrificed and livers were fixed in 4% formaldehyde. Two researchers independently scored the diameters of neoplasia that could be monitored at the liver surface. Cancerous nodules with a diameter of up to 1 cm, covering more than 97% of all visible hepatomas, were included into the analysis. […] All animal experiments were performed according to the Austrian guidelines for animal care and protection.

Hep3B [2] = experiment: Determination of long-term chemosensitivity (MTT); type: cell-based; conditions: Homo sapiens
Procedure: (§1) Cell viability was determined using the 3-(4,5 dimethylthiazol-2-yl)-2,5-diphenyltetrazolium bromide (MTT) assay. Briefly, cells were seeded in triplicates at a density of 6×10^3 cells per well. After 24 hours, cells were incubated with drug-containing medium for 72 hours. Cells were incubated with MTT solution (5 mg/ml; Sigma, St. Louis, USA) and medium was replaced with DMSO after five hours. The absorbance was measured at 620 nm by employing a microplate reader (Asys HiTech, Salzburg, Austria). MTT assays were repeated 3 times for each drug application and untreated cells were used as reference. IC50 values were obtained by log-linear interpolation of data points and are depicted by dose-response curves using the software GraphPad Prism® 5.01.
(§2) The selection of chemoresistant cells was monitored every 6 weeks by the determination of IC50 values using the MTT assay. HCC cells showing higher IC50 values after treatment with inhibitors as compared to untreated cells are considered as chemoresistant.

HepG2 [3] = experiment: Determination of long-term chemosensitivity (MTT); type: cell-based; conditions: Homo sapiens, read-out: IC50 for BP14, HepG2
Procedure: as §1, §2

PLC/PRF/5 (PLC) = experiment: MTT cell viability assay (Example 40); type: cell-based; conditions: Homo sapiens, 72 hours
Procedure: (§3) The human hepatoma cell lines and HepG2, PLC/PRF/5 (PLC), Hep3B and 3sp (formerly described as HCC-1.1) were cultivated in RPMI 1640 and 10% fetal calf serum (FCS) as described (31, 32). All cells were kept at 37° C. and 5% CO2 and were routinely screened for the absence of mycoplasma.
as §1

Hep3B [4] = experiment: MTT cell viability assay (Example 40); type: cell-based; conditions: Homo sapiens, 72 hours
Procedure: as §3, §1

[5] = tested on: 3sp (formerly described as HCC-1.1); experiment: MTT cell viability assay (Example 40); type: cell-based; conditions: Homo sapiens, 72 hours
Procedure: as §3, §1

HepG2 [6] = experiment: MTT cell viability assay (Example 40); type: cell-based; conditions: Homo sapiens, 72 hours
Procedure: as §3, §1

CDK5/p35 = target: T1, CDK5/p35 (Homo sapiens, UniProt Q00535); experiment: Kinase inhibition assay, recombinant kinase, [γ-33P]ATP; type: biochemical; conditions: Table 12; read-out: IC50, CDK5/p25NCK
T1 construct: purchased ProQinase GmbH (Freiburg, Germany)

[7] = tested on: primary human hepatocytes (PHHs); experiment: MTT cell viability assay (Example 40); type: cell-based; conditions: Hepatocyte
Procedure: Non-neoplastic tissue samples from liver resections were obtained from patients undergoing partial hepatectomy for metastatic liver tumors of colorectal cancer. Experimental procedures were performed according to the guidelines of the charitable state controlled foundation HTCR (Human Tissue and Cell Research, Regensburg, Germany), with the informed patient's consent approved by the local ethical committee of the University of Regensburg. PHHs were isolated using a modified two-step EGTA/collagenase perfusion procedure as described previously (33). Viability of isolated PHHs was determined by trypan blue exclusion and cells with a viability of more than 85% were used for further work. Cells were plated on collagen-coated plates (BD Biosciences, San Jose, USA) at a density of 1.2×10^5 cells/cm^2. The medium consisted of DMEM with 10% FCS, 2 mM L-glutamine, […], 100 U/ml penicillin and supplements as follows: 125 mU/ml insulin, 7.3 ng/ml glucagon and 0.8 μg/ml hydrocortisone. Cells were incubated at 37° C. in a humidified incubator with 5% CO2 and media were changed daily.
Cell viability was determined using the 3-(4,5 dimethylthiazol-2-yl)-2,5-diphenyltetrazolium bromide (MTT) assay. Briefly, cells were seeded in triplicates at a density of 6×10^3 cells per well. […] The absorbance was measured at 620 nm by employing a microplate reader (Asys HiTech, Salzburg, Austria). […]

T1 sequence (Q00535 whole entry): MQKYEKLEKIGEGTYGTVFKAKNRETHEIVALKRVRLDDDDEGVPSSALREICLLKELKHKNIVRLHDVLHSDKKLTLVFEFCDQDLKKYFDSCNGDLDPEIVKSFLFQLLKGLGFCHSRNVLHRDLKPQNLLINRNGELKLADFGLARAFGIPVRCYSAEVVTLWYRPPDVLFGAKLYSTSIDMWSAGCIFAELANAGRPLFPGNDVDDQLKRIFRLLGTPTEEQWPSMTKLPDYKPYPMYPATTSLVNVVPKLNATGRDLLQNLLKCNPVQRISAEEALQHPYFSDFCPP
T1 sequence (Q15078 whole entry partner): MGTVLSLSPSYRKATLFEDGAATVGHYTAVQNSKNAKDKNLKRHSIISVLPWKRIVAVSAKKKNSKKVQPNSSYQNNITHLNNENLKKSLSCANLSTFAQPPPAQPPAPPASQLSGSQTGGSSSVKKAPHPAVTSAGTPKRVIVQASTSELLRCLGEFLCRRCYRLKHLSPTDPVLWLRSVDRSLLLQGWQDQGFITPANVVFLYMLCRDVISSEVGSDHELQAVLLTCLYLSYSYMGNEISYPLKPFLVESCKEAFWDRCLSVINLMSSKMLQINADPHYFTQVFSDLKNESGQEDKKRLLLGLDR

NC1CCC(Nc2nc(NCc3ccc(-c4ccco4)nc3)c3ncn(C4CCCC4)c3n2)CC1 (stereo not drawn) [BP14, N^2-(4-amino-cyclohexyl)-9-cyclopentyl-N^6-(6-furan-2-yl-pyridin-3-ylmethyl)-9H-purine-2,6-diamine]
activity of caspase-3/7 compared with the untreated control [1]: twenty-fold increase
decrease of tumor nodules as compared to untreated control mice (DEN-induced hepatoma): 1.3 fold
pIC50 (Hep3B [2]; control, read-out: IC50 for BP14, Hep3B): 6.28
pIC50 (Hep3B [2]; long-term exposure at 1/16 IC50, read-out: IC50 for BP14, Hep3B): 6.38
pIC50 (Hep3B [2]; long-term exposure at ¼ IC50, read-out: IC50 for BP14, Hep3B): 6.35
pIC50 (Hep3B [2]; long-term exposure at ½ IC50, read-out: IC50 for BP14, Hep3B): 6.10
pIC50 (Hep3B [2]; long-term exposure at ⅛ IC50, read-out: IC50 for BP14, Hep3B): 6.42
pIC50 (HepG2 [3]; HepG2, control): 6.49
pIC50 (HepG2 [3]; HepG2, long-term exposure at 1/16 IC50): 6.57
pIC50 (HepG2 [3]; HepG2, long-term exposure at ¼ IC50): 6.35
pIC50 (HepG2 [3]; HepG2, long-term exposure at ½ IC50): 6.23
pIC50 (HepG2 [3]; HepG2, long-term exposure at ⅛ IC50): 6.41
pIC50 (PLC/PRF/5 (PLC)): 7.70
pIC50 (Hep3B [4]): 7.10
pIC50 [5]: 6.32
pIC50 (HepG2 [6]): 6.92
pIC50 (CDK5/p35): 7.82
pIC50 [7]: 4.70
